Data published in patent publication US20060130244A1, “Aqueous composition for dyeing keratin fibres comprising a dye and a specific block copolymer” (priority 2004, published 2006).

How the values were obtained:
[1] = Solubility of dye in aqueous medium (test tube, visual appearance); format: physicochemical
Protocol: The dye tested is Astrazon Orange R (or Basic Orange 22).
In a first trial, an aqueous solution comprising 0.04% of dye is added to a test tube.
In a second trial, a solution comprising 0.04% of dye, followed by 0.05% by weight of a poly(sodium acrylate-b-acrylamide) diblock copolymer (copolymer of Example 2), are added to a test tube. […] This thus attests to the ability of the block polymers in accordance with the invention to increase the solubility of dyes that are difficult to solubilize in an aqueous medium.

[2] = Stability of dye in alkaline oxidizing medium (test tube, visual coloration); format: physicochemical; conditions: ammoniacal solution
Protocol: The dye tested is Basic Red 76.
In a first trial, an ammoniacal solution at 0.04% by weight of dye at pH=9 was added to a test tube and the solution was left to stand for 1 hour.
In a second trial, an ammoniacal solution at 0.04% by weight of dye at pH=9 was added to a test tube in the presence of a poly(sodium acrylate-b-acrylamide) diblock copolymer, in which each block has, respectively, a number-average molecular mass of 5000 and 30 000, and in the presence of aqueous hydrogen peroxide at 3%, and the mixture is left to stand for 1 hour.

| Molecule | appearance of aqueous solution, with block copolymer ([1]; 0.04% of dye plus 0.05% by weight poly(sodium acrylate-b-acrylamide) diblock copolymer) | appearance of aqueous solution, dye alone ([1]; aqueous solution, 0.04% of dye, no copolymer) | coloration of the solution after standing 1 hour, dye alone ([2]; 0.04% by weight of dye, pH 9, no copolymer) | coloration of the solution after standing 1 hour, with block copolymer ([2]; 0.04% dye, pH 9, with poly(sodium acrylate-b-acrylamide) diblock copolymer (5000/30 000) and 3% aqueous hydrogen peroxide) |
| --- | --- | --- | --- | --- |
| Astrazon Orange R | clear solution | cloudy appearance | – | – |
| COc1ccccc1N=Nc1c(O)ccc2ccc([N+](C)(C)C)cc12.[Cl-] [Basic Red 76] | – | – | visible loss of coloration | remains stable |
